Experimental data reported in PubChem BioAssay (NCI).
“And” between values parts separate entries of the source, which are not always exact repeats. Equal entries are not always repeated.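 Values below derive from 48-hour exposures of cells grown in 96-well plates, with endpoints linearly interpolated between the two concentrations bracketing the appropriate inhibition level. GI50 is the concentration that inhibits growth by half. TGI marks complete inhibition of growth.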

Legend:
Assay in all cases: growth of human tumour cells (NCI), 48 h
786-0 renal = tested on: 786-0 renal
A498 renal = tested on: A498 renal
A549 NSCLC = tested on: A549 NSCLC
ACHN renal = tested on: ACHN renal
BT-549 breast = tested on: BT-549 breast
CAKI-1 renal = tested on: CAKI-1 renal
CCRF-CEM leukemia = tested on: CCRF-CEM leukemia
COLO 205 colon = tested on: COLO 205 colon
DU-145 prostate = tested on: DU-145 prostate
EKVX NSCLC = tested on: EKVX NSCLC
HCC-2998 colon = tested on: HCC-2998 colon
HCT-116 colon = tested on: HCT-116 colon
HCT-15 colon = tested on: HCT-15 colon
HL-60(TB) leukemia = tested on: HL-60(TB) leukemia
HOP-62 NSCLC = tested on: HOP-62 NSCLC
HS 578T breast = tested on: HS 578T breast
HT29 colon = tested on: HT29 colon
IGROV1 ovarian = tested on: IGROV1 ovarian
K-562 leukemia = tested on: K-562 leukemia
KM12 colon = tested on: KM12 colon
LOX IMVI melanoma = tested on: LOX IMVI melanoma
M14 melanoma = tested on: M14 melanoma
MALME-3M melanoma = tested on: MALME-3M melanoma
MCF7 breast = tested on: MCF7 breast
MDA-MB-231 breast = tested on: MDA-MB-231 breast
MDA-MB-435 = tested on: MDA-MB-435
MOLT-4 leukemia = tested on: MOLT-4 leukemia
NCI-H226 lung = tested on: NCI-H226 lung
NCI-H23 lung = tested on: NCI-H23 lung
NCI-H460 lung = tested on: NCI-H460 lung
NCI-H522 lung = tested on: NCI-H522 lung
OVCAR-3 ovarian = tested on: OVCAR-3 ovarian
OVCAR-4 ovarian = tested on: OVCAR-4 ovarian
OVCAR-5 ovarian = tested on: OVCAR-5 ovarian
OVCAR-8 ovarian = tested on: OVCAR-8 ovarian
PC-3 prostate = tested on: PC-3 prostate
RPMI-8226 leukemia = tested on: RPMI-8226 leukemia
RXF 393 renal = tested on: RXF 393 renal
SF-268 CNS = tested on: SF-268 CNS
SF-295 CNS = tested on: SF-295 CNS
SK-MEL-28 melanoma = tested on: SK-MEL-28 melanoma
SN12C renal = tested on: SN12C renal
SNB-19 CNS = tested on: SNB-19 CNS
SR leukemia = tested on: SR leukemia
SW-620 colon = tested on: SW-620 colon
TK-10 renal = tested on: TK-10 renal
UACC-257 melanoma = tested on: UACC-257 melanoma
UACC-62 melanoma = tested on: UACC-62 melanoma
UO-31 renal = tested on: UO-31 renal
HOP-92 NSCLC = tested on: HOP-92 NSCLC
NCI/ADR-RES ovarian = tested on: NCI/ADR-RES ovarian
SF-539 CNS = tested on: SF-539 CNS
SK-MEL-5 melanoma = tested on: SK-MEL-5 melanoma
SK-OV-3 ovarian = tested on: SK-OV-3 ovarian
U251 CNS = tested on: U251 CNS
SK-MEL-2 melanoma = tested on: SK-MEL-2 melanoma
SNB-75 CNS = tested on: SNB-75 CNS
T-47D breast = tested on: T-47D breast

`Cc1ccnc2[nH]c(-c3cccc4ccccc34)cc(=O)c12` gave a TGI (786-0 renal) greater than 100 µM, a TGI (A498 renal) of 0.0681 µM and a GI50 (A549 NSCLC) of 0.0132 µM. It also gave a TGI (A549 NSCLC) greater than 100 µM, a GI50 (ACHN renal) of 0.039 µM and a TGI (ACHN renal) greater than 100 µM. For the same compound, the TGI (BT-549 breast) was 72 µM, the TGI (CAKI-1 renal) was greater than 100 µM and the TGI (CCRF-CEM leukemia) was greater than 100 µM. The GI50 (COLO 205 colon) was 0.015 µM, the TGI (COLO 205 colon) was 0.0992 µM and 0.205 µM and the GI50 (DU-145 prostate) was 0.0284 µM. It also gave a TGI (DU-145 prostate) greater than 100 µM, a GI50 (EKVX NSCLC) of 0.0151 µM and a TGI (EKVX NSCLC) of 34.6 µM. The GI50 (HCC-2998 colon) was 0.101 µM, the TGI (HCC-2998 colon) was 0.363 µM and 0.707 µM and the TGI (HCT-116 colon) was 14.2 µM. For the same compound, the GI50 (HCT-15 colon) was 0.0152 µM, the TGI (HCT-15 colon) was greater than 100 µM and the TGI (HL-60(TB) leukemia) was 0.00697 µM. It also gave a GI50 (HOP-62 NSCLC) of 7.39 µM, a TGI (HOP-62 NSCLC) greater than 100 µM and a GI50 (HS 578T breast) of 0.0173 µM. For the same compound, the TGI (HS 578T breast) was 92.7 µM, the TGI (HT29 colon) was 0.0785 µM and 0.0628 µM and the GI50 (IGROV1 ovarian) was 0.0585 µM. The TGI (IGROV1 ovarian) was 50 µM, the TGI (K-562 leukemia) was 63.9 µM and the TGI (KM12 colon) was 3.85 µM. The TGI (LOX IMVI melanoma) was 17.1 µM, the GI50 (M14 melanoma) was 0.0132 µM and the TGI (M14 melanoma) was greater than 100 µM. For the same compound, the TGI (MALME-3M melanoma) was 0.0474 µM, the GI50 (MCF7 breast) was 0.0431 µM and the TGI (MCF7 breast) was 28 µM. It also gave a GI50 (MDA-MB-231 breast) of 0.0656 µM, a TGI (MDA-MB-231 breast) of 6.8 µM and a TGI (MDA-MB-435) of 0.000495 µM. For the same compound, the TGI (MOLT-4 leukemia) was greater than 100 µM, the TGI (NCI-H226 lung) was 33.9 µM and the GI50 (NCI-H23 lung) was 0.0315 µM. The TGI (NCI-H23 lung) was greater than 100 µM, the TGI (NCI-H460 lung) was greater than 100 µM and the TGI (NCI-H522 lung) was 0.00758 µM and 0.0471 µM. For the same compound, the TGI (OVCAR-3 ovarian) was 0.0115 µM, the GI50 (OVCAR-4 ovarian) was 17.6 µM and the TGI (OVCAR-4 ovarian) was greater than 100 µM. It also gave a GI50 (OVCAR-5 ovarian) of 0.0813 µM, a TGI (OVCAR-5 ovarian) greater than 100 µM and a GI50 (OVCAR-8 ovarian) of 0.0169 µM. The TGI (OVCAR-8 ovarian) was 16 µM, the GI50 (PC-3 prostate) was 0.0199 µM and the TGI (RPMI-8226 leukemia) was 28.6 µM. For the same compound, the TGI (RXF 393 renal) was greater than 100 µM, the GI50 (SF-268 CNS) was 15.8 µM and the TGI (SF-268 CNS) was greater than 100 µM. For the same compound, the GI50 (SF-295 CNS) was 0.0107 µM, the TGI (SF-295 CNS) was greater than 100 µM and the TGI (SK-MEL-28 melanoma) was 40.2 µM. The GI50 (SN12C renal) was 0.678 µM, the TGI (SN12C renal) was greater than 100 µM and the TGI (SNB-19 CNS) was greater than 100 µM. For the same compound, the TGI (SR leukemia) was 34.8 µM, the TGI (SW-620 colon) was greater than 100 µM and the GI50 (TK-10 renal) was 25.8 µM. It also gave a TGI (TK-10 renal) greater than 100 µM, a TGI (UACC-257 melanoma) greater than 100 µM and a TGI (UACC-62 melanoma) of 26.5 µM. The GI50 (UO-31 renal) was 0.0368 µM and the TGI (UO-31 renal) was 53.8 µM.

For `COc1cccc(-c2cc(=O)c3cc(NC(C)=O)ccc3[nH]2)c1`, the TGI (786-0 renal) was greater than 100 µM, the TGI (A498 renal) was 61 µM and the TGI (A549 NSCLC) was greater than 100 µM. The TGI (ACHN renal) was greater than 100 µM, the TGI (BT-549 breast) was greater than 100 µM and the TGI (CAKI-1 renal) was greater than 100 µM. For the same compound, the TGI (CCRF-CEM leukemia) was 9.27 µM, the TGI (COLO 205 colon) was greater than 100 µM and the TGI (EKVX NSCLC) was greater than 100 µM. The TGI (HCC-2998 colon) was greater than 100 µM, the TGI (HCT-15 colon) was greater than 100 µM and the TGI (HOP-62 NSCLC) was greater than 100 µM. For the same compound, the TGI (HOP-92 NSCLC) was greater than 100 µM, the TGI (HS 578T breast) was 8.35 µM and the TGI (HT29 colon) was greater than 100 µM. The TGI (IGROV1 ovarian) was greater than 100 µM, the TGI (KM12 colon) was greater than 100 µM and the TGI (LOX IMVI melanoma) was greater than 100 µM. The TGI (M14 melanoma) was greater than 100 µM, the TGI (MALME-3M melanoma) was greater than 100 µM and the TGI (MCF7 breast) was greater than 100 µM. It also gave a TGI (MDA-MB-231 breast) greater than 100 µM, a TGI (MDA-MB-435) of 17.1 µM and a TGI (MOLT-4 leukemia) greater than 100 µM. The TGI (NCI-H23 lung) was greater than 100 µM, the TGI (NCI-H460 lung) was greater than 100 µM and the TGI (NCI-H522 lung) was greater than 100 µM. The TGI (NCI/ADR-RES ovarian) was greater than 100 µM, the GI50 (OVCAR-4 ovarian) was 19.6 µM and the TGI (OVCAR-4 ovarian) was greater than 100 µM. For the same compound, the TGI (OVCAR-5 ovarian) was greater than 100 µM, the TGI (OVCAR-8 ovarian) was greater than 100 µM and the TGI (PC-3 prostate) was greater than 100 µM. The TGI (RPMI-8226 leukemia) was 96.2 µM, the TGI (SF-268 CNS) was greater than 100 µM and the TGI (SF-539 CNS) was 44.7 µM. For the same compound, the TGI (SK-MEL-28 melanoma) was greater than 100 µM, the TGI (SK-MEL-5 melanoma) was 56 µM and the TGI (SK-OV-3 ovarian) was greater than 100 µM. For the same compound, the TGI (SN12C renal) was greater than 100 µM, the TGI (SNB-19 CNS) was greater than 100 µM and the TGI (SR leukemia) was 6 µM. For the same compound, the TGI (SW-620 colon) was greater than 100 µM, the TGI (TK-10 renal) was greater than 100 µM and the TGI (U251 CNS) was greater than 100 µM. It also gave a TGI (UACC-257 melanoma) greater than 100 µM, a TGI (UACC-62 melanoma) greater than 100 µM and a TGI (UO-31 renal) greater than 100 µM.

For `Cc1nnc2sc(Cc3cnc(N)s3)nn12`, the TGI (786-0 renal) was greater than 100 µM, the TGI (A549 NSCLC) was greater than 100 µM and the TGI (ACHN renal) was greater than 100 µM. It also gave a TGI (CCRF-CEM leukemia) greater than 100 µM, a TGI (COLO 205 colon) greater than 100 µM and a TGI (DU-145 prostate) greater than 100 µM. The TGI (EKVX NSCLC) was greater than 100 µM, the TGI (HCC-2998 colon) was greater than 100 µM and the TGI (HCT-116 colon) was greater than 100 µM. The TGI (HCT-15 colon) was greater than 100 µM, the TGI (HL-60(TB) leukemia) was greater than 100 µM and the TGI (HOP-62 NSCLC) was greater than 100 µM. The TGI (HOP-92 NSCLC) was greater than 100 µM, the TGI (HS 578T breast) was greater than 100 µM and the TGI (HT29 colon) was greater than 100 µM. The TGI (IGROV1 ovarian) was greater than 100 µM, the TGI (K-562 leukemia) was greater than 100 µM and the TGI (KM12 colon) was greater than 100 µM. It also gave a TGI (M14 melanoma) greater than 100 µM, a TGI (MALME-3M melanoma) greater than 100 µM and a TGI (MCF7 breast) greater than 100 µM. It also gave a TGI (MDA-MB-231 breast) greater than 100 µM, a TGI (MOLT-4 leukemia) greater than 100 µM and a TGI (NCI-H226 lung) greater than 100 µM. For the same compound, the TGI (NCI-H23 lung) was greater than 100 µM, the TGI (NCI-H460 lung) was greater than 100 µM and the TGI (NCI-H522 lung) was greater than 100 µM. For the same compound, the TGI (NCI/ADR-RES ovarian) was greater than 100 µM, the TGI (OVCAR-4 ovarian) was greater than 100 µM and the TGI (OVCAR-5 ovarian) was greater than 100 µM. It also gave a TGI (OVCAR-8 ovarian) greater than 100 µM, a TGI (PC-3 prostate) greater than 100 µM and a TGI (RPMI-8226 leukemia) greater than 100 µM. For the same compound, the TGI (RXF 393 renal) was greater than 100 µM, the TGI (SF-268 CNS) was greater than 100 µM and the TGI (SF-539 CNS) was greater than 100 µM. It also gave a TGI (SK-MEL-2 melanoma) greater than 100 µM, a TGI (SK-MEL-28 melanoma) greater than 100 µM and a TGI (SK-MEL-5 melanoma) greater than 100 µM. The TGI (SK-OV-3 ovarian) was greater than 100 µM, the TGI (SN12C renal) was greater than 100 µM and the TGI (SNB-19 CNS) was greater than 100 µM. It also gave a TGI (SNB-75 CNS) greater than 100 µM, a TGI (SR leukemia) greater than 100 µM and a TGI (SW-620 colon) greater than 100 µM. It also gave a TGI (T-47D breast) greater than 100 µM, a TGI (TK-10 renal) greater than 100 µM and a TGI (U251 CNS) greater than 100 µM. For the same compound, the TGI (UACC-257 melanoma) was greater than 100 µM, the TGI (UACC-62 melanoma) was greater than 100 µM and the TGI (UO-31 renal) was greater than 100 µM.
